Measurements reported in patent US12559474B2, “Triazine derivatives having virus replication inhibitory activity and pharmaceutical composition comprising the same” (priority 2021, dated 2026).
Where two headings read alike, the source gives them in different places.

Experiments:
SARS-CoV-2 3CL protease = SARS-CoV-2 3CL protease (Severe acute respiratory syndrome coronavirus 2, UniProt P0DTD1); experiment: biochemical; conditions: 50% SARS-CoV-2 3CL protease inhibitory concentration, read-out: IC50
SARS-CoV-2 = experiment: microbe, parasite or virus in culture; assay type: cell-based; conditions: Severe acute respiratory syndrome coronavirus 2, VeroE6/TMPRSS2, 72 h, 50% SARS-CoV-2 infected cell death inhibitory concentration, VeroE6/TMPRSS2 cells, 3 days culture

Row | SMILES | IC50 (SARS-CoV-2 3CL protease; given as class symbols) | EC50 (SARS-CoV-2; class symbols) | IC50 (SARS-CoV-2 3CL protease; RapidFire MS) | EC50 (SARS-CoV-2; CellTiter-Glo 2.0)
1 | CC(C)n1cc2cc(Nc3nc(=O)n(Cc4cccnc4O)c(=O)n3Cc3cc(F)c(F)c(F)c3)c(Cl)cc2n1 [Compound I-0366] | < 100 nM | 1000 to 10000 nM |  | 
2 | Cn1cnc(Cn2c(=O)nc(Nc3cc4cn(CCO)nc4cc3Cl)n(Cc3cc(F)c(F)c(F)c3)c2=O)n1 [Compound I-0432] | < 100 nM | 1000 to 10000 nM |  | 
3 | Cc1cncc(-n2c(=O)nc(Nc3cc4cn(C)nc4cc3Cl)n(Cc3ccc(F)c(Cl)c3)c2=O)c1 [II-0442] | < 100 nM | < 1000 nM |  | 
4 | COc1ccc(Nc2nc(=O)n(Cc3ccc[nH]c3=O)c(=O)n2Cc2cc(F)c(F)c(Cl)c2)cc1 [Compound I-0254] | < 100 nM | 1000 to 10000 nM |  | 
5 | O=c1[nH]cccc1Cn1c(=O)nc(Nc2ccc(OC3CC3)cc2Cl)n(Cc2cc(F)c(F)c(F)c2)c1=O [Compound I-0392] | < 100 nM | 1000 to 10000 nM |  | 
6 | O=c1[nH]cccc1Cn1c(=O)nc(Nc2cc3cn(C4CC(F)(F)C4)nc3cc2Cl)n(Cc2cc(F)c(F)c(F)c2)c1=O [Compound I-0470] | < 100 nM | 1000 to 10000 nM |  | 
7 | CCCc1cc(F)c(F)cc1Cn1c(Nc2cc3cn(C)nc3cc2Cl)nc(=O)n(-c2cncc(C)c2)c1=O [II-0069] | < 100 nM | 1000 to 10000 nM |  | 
8 | COc1cc(F)c(F)cc1Cn1c(Nc2cc3cn(C)nc3cc2Cl)nc(=O)n(-c2cncc(C)c2)c1=O [II-0520] | < 100 nM | 1000 to 10000 nM |  | 
9 | Cc1cncc(-n2c(=O)nc(Nc3cc4cn(C)nc4cc3Cl)n(Cc3cccc(F)c3F)c2=O)c1 [II-0187] | < 100 nM | < 1000 nM |  | 
10 | Cc1cncc(-n2c(=O)nc(Nc3cc4cn(C)nc4cc3F)n(Cc3cc(C#N)ccc3Cl)c2=O)c1 [II-0364] | < 100 nM | < 1000 nM |  | 
11 | O=c1[nH]cccc1Cn1c(=O)nc(Nc2cc3cn(CC4(O)CCC4)nc3cc2Cl)n(Cc2cc(F)c(F)c(F)c2)c1=O [Compound I-0423] | < 100 nM | 1000 to 10000 nM |  | 
12 | Cc1nc2ccc(Nc3nc(=O)n(-c4cncc5ccccc45)c(=O)n3Cc3ccc(F)c(C#N)c3)cc2o1 [II-0176] | < 100 nM | < 1000 nM |  | 
13 | Cn1cnc(Cn2c(=O)nc(Nc3cc4cn(CC(F)F)nc4cc3Cl)n(Cc3cc(F)c(F)cc3F)c2=O)n1 [II-0163] |  |  | 8.8 nM | 342 nM
14 | CNc1nc2cc(Cl)c(Nc3nc(=O)n(-c4cncc(C)c4)c(=O)n3Cc3cc(F)c(F)cc3F)cc2s1 [II-0236] | < 100 nM | < 1000 nM |  | 
15 | Cc1cncc(-n2c(=O)nc(Nc3cc4c(C#N)n(C)nc4cc3Cl)n(Cc3ccc(F)c(C#N)c3)c2=O)c1 [II-0368] | < 100 nM | 1000 to 10000 nM |  | 
16 | COc1ccc(Nc2nc(=O)n(Cc3ccc[nH]c3=O)c(=O)n2Cc2ccc(F)c(C#N)c2)c(Cl)c1 [Compound I-0331] | < 100 nM | 1000 to 10000 nM |  | 
17 | COc1ccc(Nc2nc(=O)n(Cc3ccc[nH]c3=O)c(=O)n2Cc2cc(F)c(F)cc2F)cc1 [Compound I-0320] | < 100 nM | 1000 to 10000 nM |  | 
18 | COc1ccc(Nc2nc(=O)n(Cc3cc4ccccc4[nH]c3=O)c(=O)n2Cc2cc(F)c(F)c(F)c2)cc1 [Compound I-0306] | < 100 nM | 1000 to 10000 nM |  | 
19 | COc1ccc(Nc2nc(=O)n(Cc3ccc[nH]c3=O)c(=O)n2Cc2cc(Cl)ccc2F)cc1 [Compound I-0231] | < 100 nM | 1000 to 10000 nM |  | 
20 | Cc1cncc(-n2c(=O)nc(Nc3cc4cn(C)nc4cc3Cl)n(Cc3cc(F)c(F)cc3Cc3cccc(CO)c3)c2=O)c1 [II-0025] | < 100 nM | 8000 nM |  | 
21 | O=c1[nH]c2ncccc2cc1Cn1c(=O)nc(Nc2cc3cn(CCO)nc3cc2Cl)n(Cc2cc(F)c(F)c(F)c2)c1=O [Compound I-0237] |  |  | 4.2 nM | 3390 nM
22 | CNc1nc2cc(Cl)c(Nc3nc(=O)n(-c4cncc(C)c4)c(=O)n3Cc3cc(F)c(F)c(F)c3)cc2s1 [II-0318] | < 100 nM | < 1000 nM |  | 
23 | COc1ccc(Nc2nc(=O)n(Cc3ccc[nH]c3=O)c(=O)n2Cc2cc(Cl)c(F)cc2F)cc1 [Compound I-0226] | < 100 nM | 1000 to 10000 nM |  | 
24 | CCn1cc2cc(Nc3nc(=O)n(-c4cncc(C)c4)c(=O)n3Cc3cc(C#N)c(F)cc3C)ccc2n1 [II-0335] |  |  | 3.2 nM | 241 nM
25 | Cc1c2cc(Nc3nc(=O)n(Cc4ncn(C)n4)c(=O)n3Cc3cc(Cl)c(F)cc3F)c(Cl)cc2nn1C [II-0437] | < 100 nM | < 1000 nM |  | 
26 | Cn1cnc(Cn2c(=O)nc(Nc3cc4cn(CC5CC5)nc4cc3Cl)n(Cc3cc(Cl)c(F)cn3)c2=O)n1 [II-0269] | < 100 nM | 1000 to 10000 nM |  | 
27 | Cc1cncc(-n2c(=O)nc(Nc3ccc4nc(C)sc4c3)n(Cc3ccc(F)c(C#N)c3)c2=O)c1 [II-0197] | < 100 nM | < 1000 nM |  | 
28 | Cn1cnc(Cn2c(=O)nc(Nc3cc4c(F)n(C)nc4cc3Cl)n(Cc3cc(F)c(F)cc3F)c2=O)n1 [II-0455] |  |  | 19 nM | 750 nM
